Patent US20260355318A1, “MOLECULAR MACHINES FOR TREATMENT OF CANCER, FUNGAL INFECTIONS, OR BACTERIAL INFECTIONS” (priority 2022, published 2026)
Read-outs that look alike come from different tables or passages of the source.

Key:
[1] = system: C. albicans; experiment: Development of resistance / cross-resistance in C. albicans (serial passage, single-step); assay type: cell-based; settings: Candida albicans, read-out: MIC of MM in antifungal-resistant C. albicans
Experimental: FIG. 3: Evaluation of the development of resistance to MMs in C. albicans. For the stepwise resistance assessment by serial passage (left), C. albicans cell suspensions were treated with increasing concentrations (0.3125-160 μM) of different MMs (8 mM stock in DMSO) and then irradiated with […] light (87.6 J cm^−2). The irradiated cell suspensions were then inoculated in MOPS-buffered RPMI 1640 (pH 7.0, Sigma, MO, USA), and the tubes were incubated at 30 ° C for 48 h. […] Cells able to grow at 0.5×MIC of each MM were collected by centrifugation (5,000×g, 5 min), resuspended and re-challenged with a range of MM concentrations and irradiated with 405 nm light (87.6 J cm^−2). The procedure was repeated for a total of 20 consecutive cycles. […] Irradiated cells were then inoculated in YPD and incubated at 30 °C. However, MM-resistant colonies could not be recovered even after 14 days of incubation. Created with Biorender.com.
A modified version of the broth microdilution serial passage method was used to assess the development of resistance to visible-light-activated MMs in C. albicans (Kapoor et al., 2019). C. albicans cell suspensions were prepared and irradiated as previously described for the determination of MM MIC. Cells were then inoculated into buffered RPMI 1640 and incubated at 30 ° C for 48 h. Cells able to grow at 0.5×MIC of MM were centrifuged (5,000×g, 5 min), resuspended, rechallenged with different MM concentrations, and irradiated with 405-nm light (87.6 J cm^−2). The procedure was repeated for 20 consecutive cycles. The antifungals AMB, CAS, and FLC were processed similarly, except that light was omitted, and used as controls.

[2] = system: mitochondrial cytochrome c; experiment: Cytochrome c release; assay type: cell-based, Candida albicans; settings: 2×MIC, p<0.05
Experimental: Cells were harvested for protoplast preparation by digestion with zymolyase 20 T (20 mg mL-1, US Biological Life Sciences, MA, USA) in 0.1 M potassium phosphate buffer (pH 6.0) containing 1 M sorbitol for 1 h at 30 °C. Mitochondrial cytochrome c was extracted and reduced with ascorbic acid (0.5 mg mL^−1) as previously described (Yun and Lee, 2016). The absorbance at 550 nm was determined on a Beckman Coulter DU 800 spectrophotometer (Fullerton, CA, USA). Cytochrome c levels were normalized to the protein content determined using the Pierce assay (Pierce™ BCA Protein Assay Kit, Thermo Fisher Scientific, MA, USA).

[3] = Estimated rotation rate after light activation; settings: based on known motors with similar core skeletons
[4] = system: E. coli; experiment: MIC, E. coli; assay type: cell-based, Escherichia coli BW25113; settings: Escherichia coli, read-out: MIC of MM
[5] = system: S. epidermidis; experiment: MIC, S. epidermidis; assay type: cell-based; settings: Staphylococcus epidermidis, read-out: MIC of MM
Experimental: (§1) The appropriate volume of an MM stock at 8 mM necessary to achieve a concentration ranging from 0.3125 to 40 μM was pipetted into a 2 mL microcentrifuge tube to which 1 mL of cell suspension prepared as previously described was added. Corresponding negative controls (DMSO only) were prepared in the same way. The mixture was gently mixed by pipetting and incubated in the dark at 30 or 37 ° C, depending on the strain, for 30 min with agitation (220 rpm). Afterward, MM- or DMSO-treated cells were dispensed in one well of a 24-well plate positioned in the center of the light beam (405 nm LED Light, Prizmatix, UHP—F-5-405) placed at the appropriate distance necessary to achieve the desired light intensity of 304 mW cm-2, 146 mW cm2 or 87 mW cm2, as measured with a handheld digital power meter console coupled to an S415C thermal power sensor head (Thorlabs, Newton, MA, USA). The temperature during irradiation was monitored using a thermocouple probe (Model SC-TT-K-30-36-PP; Omega Engineering, Inc., Stanford, CT, USA). Samples were agitated during irradiation. Dark controls were prepared as previously described except that no irradiation was provided. […]

[6] = system: B. cereus; experiment: MIC, B. cereus; assay type: cell-based; settings: Bacillus cereus, read-out: MIC of MM
Experimental: as §1

[7] = system: E. coli; experiment: Electron microscopy (TEM, SEM) of E. coli; assay type: cell-based, Escherichia coli; settings: 0.5×MIC, 43.8 J cm^−2
Experimental: E. coli was cultured to mid-log phase in MHB media. Cells were collected and resuspended in PBS (1×) to an OD600 of ≈0.05. […] Cells were then irradiated for 5 min at 146 mW cm-2 (43.8 J cm^−2) after which cells were fixed with Karnovsky's fixative (Carlson et al., 2003), and post-fixed with 1% osmium, and dehydrated with a series of ethanol washes. For TEM, samples were embedded in epoxy resin (PolyBed 812; Polyscienses, Inc., Warrington, PA, United States) after dehydration in a graduated 50-100% ethanol concentration series of washes. Ultrathin sections (65 nm) were cut using a Leica EM UC7 ultramicrotome (Leica Microsystems, Wetzlar, Germany) and post-stained with uranyl acetate and lead citrate. Specimens were observed using a JEOL JEM2100 TEM ([…], Japan) operating at an accelerating voltage of 80 kV. For SEM, following ethanol dehydration samples were critical point dried using a Leica EM CPD300 (Leica Microsystems, Wetzlar, Germany), sputter-coated with 10 nm of gold, and imaged with an FEI Apreo SEM (FEI Apreo, ThermoFisher Scientific, Waltham, MA) using a secondary electron detector.

[8] = system: human embryonic kidney cells (HEK); experiment: Toxicity to HEK cells (CellTiter-Glo); assay type: cell-based; settings: HEK293, 5 min, 405 nm light 146 mW cm^−2, 5 min, read-out: IC50 (HEK viability)
Experimental: Biocompatibility of MM with primary NHDF and HEK293T cells was assessed using the CellTiter-Glo® Luminescent Cell Viability Assay (Promega), per the manufacturer's instructions. The MM concentrations that reduced cell viability by 50% (IC50) were identified and the therapeutic index was calculated as the ratio between the IC50 and the MIC at a light intensity of 146 mW cm^−2.

[9] = E. coli, Table 9, 405 nm light 43.8 J cm^−2

| Compound | MIC [1] [µM] | mitochondrial cytochrome c levels [2] | estimated rotation rate after light activation [3] [MHz] | MIC [4, 9] [µM] | MIC [5] [µM] | MIC [6] [µM] | cell morphology (TEM) [7] | IC50 [8] [µM] | MIC ([4]; E. coli BW25113, 405 nm light 43.8 J cm^−2) [µM] |
| --- | --- | --- | --- | --- | --- | --- | --- | --- | --- |
| C[C@@H]1Cc2ccc3ccccc3c2/C1=C1\c2ccccc2Sc2cc(NCCN)ccc21 (racemic) [MM 6, N^1-(9-(2-methyl-2,3-dihydro-1H-cyclopenta[a]naphthalen-1-ylidene)-9H-thioxanthen-3-yl)ethane-1,2-diamine] | 2.5 | significant reductions in mitochondrial cytochrome c levels | 3 | 2.5 | 0.078 | 10 | substantial changes in cell morphology | 5 | – |
| C[C@@H]1Cc2ccc3ccccc3c2/C1=C1\c2ccccc2Sc2cc(NCCN(C)C)ccc21 [MM 1, N^1N^1-dimethyl-N^2-(9-(2-methyl-2,3-dihydro-1H-cyclopenta[a]naphthalen-1-ylidene)-9H-thioxanthen-3-yl) ethane-1,2-diamine] | 1.25 | significant reductions in mitochondrial cytochrome c levels | 3 | 1.25 | 0.078 | 10 | substantial changes in cell morphology | 5 | 1.25 |
